Data reported in patent publication US20260078158A1, “COMPOSITIONS COMPRISING CXCL10-DERIVED PEPTIDES AND METHODS OF USE THEREOF” (priority 2022, published 2026).
Several values for one entry are separate records, joined by “and”; a condition that tells them apart may be missing. Equal entries are not always repeated. Where two headings read alike, the source gives them in different places.

Experiments:
[1] = test system: Escherichia coli; assay: microbe, parasite or virus in culture; type: cell-based; details: acetate formulation
[2] = test system: Enterococcus faecium; assay: microbe, parasite or virus in culture; type: cell-based; details: acetate formulation
[3] = test system: E. cloacae species complex; assay: microbe, parasite or virus in culture; type: cell-based, Enterobacter cloacae; details: acetate formulation
[4] = test system: Acinetobacter baumannii-calcoaceticus complex; assay: microbe, parasite or virus in culture; type: cell-based; details: acetate formulation
[5] = test system: Klebsiella pneumoniae; design: MIC: unit not given beside the values; details: strain ATCC 43816, sponsor, acetate formulation
[6] = test system: Streptococcus pneumoniae; assay: microbe, parasite or virus in culture; type: cell-based; details: acetate formulation, in µg/mL
[7] = test system: Enterococcus faecalis; assay: microbe, parasite or virus in culture; type: cell-based; details: acetate formulation, in µg/mL
[8] = test system: Staphylococcus aureus; assay: microbe, parasite or virus in culture; type: cell-based; details: acetate formulation, in µg/mL
[9] = test system: Pseudomonas aeruginosa; assay: microbe, parasite or virus in culture; type: cell-based; details: acetate formulation, in µg/mL

RYVRCRCI [Peptide P194] gave an MIC ([1]; strain 1191008, MDR, ESBL, replicate R1) of 8 µg/mL, an MIC ([1]; strain 1191008, MDR, ESBL, replicate R2) of 8 µg/mL and an MIC ([1]; strain 1231795, MDR, ESBL, replicate R1) of 8 µg/mL. For the same sequence, the MIC ([1]; strain 1231795, MDR, ESBL, replicate R2) was 8 µg/mL, the MIC ([1]; strain 1232428, MDR (COL-R), ESBL, replicate R1) was 16 µg/mL and the MIC ([1]; strain 1232428, MDR (COL-R), ESBL, replicate R2) was 8 µg/mL. The MIC ([1]; strain 1248389, ESBL, replicate R1) was 8 µg/mL, the MIC ([1]; strain 1248389, ESBL, replicate R2) was 8 µg/mL and the MIC ([1]; strain ATCC 25922, QC, replicate R1) was 8 (3×) and 4. The MIC ([1]; strain ATCC 25922, QC, replicate R2) was 4 and 8 (2×), the MIC ([1]; strain ATCC BAA-2452, NDM-1, replicate R1) was 8 µg/mL and the MIC ([1]; strain ATCC BAA-2452, NDM-1, replicate R2) was 4 µg/mL. For the same sequence, the MIC ([2]; strain 1196024, VRE, replicate R1) was 2 µg/mL, the MIC ([2]; strain 1196024, VRE, replicate R2) was 2 µg/mL and the MIC ([2]; strain 1208412, VRE, replicate R1) was 2 µg/mL. It also gave an MIC ([2]; strain 1208412, VRE, replicate R2) of 1 µg/mL, an MIC ([2]; strain 1222807, VSE, replicate R1) of 2 µg/mL and an MIC ([2]; strain 1222807, VSE, replicate R2) of 1 µg/mL. It also gave an MIC ([3]; Enterobacter cloacae strain 1230117, non-MDR, replicate R1) of 8 µg/mL, an MIC ([3]; Enterobacter cloacae strain 1230117, non-MDR, replicate R2) of 8 µg/mL and an MIC ([3]; strain 1197959, non-MDR, replicate R1) of 16 µg/mL. The MIC ([3]; strain 1197959, non-MDR, replicate R2) was 16 µg/mL, the MIC ([3]; strain 1204419, non-MDR, replicate R1) was 16 µg/mL and the MIC ([3]; strain 1204419, non-MDR, replicate R2) was 16 µg/mL. It also gave an MIC ([3]; strain 1230601, non-MDR, replicate R1) of 16 µg/mL, an MIC ([3]; strain 1230601, non-MDR, replicate R2) of 8 µg/mL and an MIC ([3]; strain 1232701, MDR, replicate R1) of 16 µg/mL. It also gave an MIC ([3]; strain 1232701, MDR, replicate R2) of 16 µg/mL, an MIC ([4]; strain 1204424, non-MDR, replicate R1) of 8 µg/mL and an MIC ([4]; strain 1204424, non-MDR, replicate R2) of 8 µg/mL. The MIC ([4]; strain 1208060, non-MDR, replicate R1) was 8 µg/mL, the MIC ([4]; strain 1208060, non-MDR, replicate R2) was 4 µg/mL and the MIC ([4]; strain 1215088, MDR, replicate R1) was 8 µg/mL. The MIC ([4]; strain 1215088, MDR, replicate R2) was 4 µg/mL, the MIC ([4]; strain 1215098, MDR, replicate R1) was 16 µg/mL and the MIC ([4]; strain 1215098, MDR, replicate R2) was 8 µg/mL. For the same sequence, the MIC ([4]; strain 1216520, non-MDR, replicate R1) was 8 µg/mL, the MIC ([4]; strain 1216520, non-MDR, replicate R2) was 4 µg/mL and the MIC ([5]; replicate R1) was 8 (3×) and 4. For the same sequence, the MIC ([5]; replicate R2) was 8 and 4 (2×), the MIC ([6]; strain 1200385, PEN-S, replicate R1) was 32 and the MIC ([6]; strain 1200385, PEN-S, replicate R2) was 32. For the same sequence, the MIC ([6]; strain 1219456, PEN-R, replicate R1) was 32, the MIC ([6]; strain 1219456, PEN-R, replicate R2) was 32 and the MIC ([6]; strain 1219876, PEN-R, replicate R1) was 32. It also gave an MIC ([6]; strain 1219876, PEN-R, replicate R2) of 32, an MIC ([6]; strain 1223661, PEN-R, replicate R1) of 32 and an MIC ([6]; strain 1223661, PEN-R, replicate R2) of 32. It also gave an MIC ([6]; strain 1227224, PEN-S, replicate R1) of 16, an MIC ([6]; strain 1227224, PEN-S, replicate R2) of 32 and an MIC ([6]; strain ATCC 49619, QC, replicate R1) of 16. For the same sequence, the MIC ([6]; strain ATCC 49619, QC, replicate R2) was 16, the MIC ([7]; strain 1204777, VRE, replicate R1) was 4 and the MIC ([7]; strain 1204777, VRE, replicate R2) was 2. For the same sequence, the MIC ([7]; strain 1211589, VRE, replicate R1) was 4, the MIC ([7]; strain 1211589, VRE, replicate R2) was 2 and the MIC ([7]; strain ATCC 29212, QC, replicate R1) was 4. For the same sequence, the MIC ([7]; strain ATCC 29212, QC, replicate R2) was 4, the MIC ([8]; strain 1124691, MRSA (USA300)/MDR, replicate R1) was 32 and the MIC ([8]; strain 1182822, replicate R2) was 32. The MIC ([8]; strain 1189667, MRSA/MDR, replicate R1) was 32, the MIC ([8]; strain 1189667, MRSA/MDR, replicate R2) was 16 and the MIC ([8]; strain 1189809, MRSA/MDR, replicate R1) was 32. For the same sequence, the MIC ([8]; strain 1189809, MRSA/MDR, replicate R2) was 32, the MIC ([8]; strain 1190388, MRSA, replicate R1) was 32 and the MIC ([8]; strain 1190388, MRSA, replicate R2) was 16. It also gave an MIC ([8]; strain 1221979, MRSA, replicate R1) of 32, an MIC ([8]; strain 1221979, MRSA, replicate R2) of 32 and an MIC ([8]; strain ATCC 29213, QC, replicate R1) of 32. The MIC ([8]; strain ATCC 29213, QC, replicate R2) was 32, the MIC ([9]; strain 1190985, non-MDR, replicate R1) was 32 and the MIC ([9]; strain 1190985, non-MDR, replicate R2) was 32. For the same sequence, the MIC ([9]; strain 1202638, MDR, replicate R1) was 32, the MIC ([9]; strain 1202638, MDR, replicate R2) was 32 and the MIC ([9]; strain 1210081, non-MDR, replicate R1) was 32. For the same sequence, the MIC ([9]; strain 1210081, non-MDR, replicate R2) was 32, the MIC ([9]; strain 1242554, non-MDR, replicate R1) was 32 and the MIC ([9]; strain 1242554, non-MDR, replicate R2) was 16. For the same sequence, the MIC ([9]; strain 1263496, MDR, replicate R1) was 16, the MIC ([9]; strain 1263496, MDR, replicate R2) was 8 and the MIC ([9]; strain ATCC 27853, QC, replicate R1) was 16. For the same sequence, the MIC ([9]; strain ATCC 27853, QC, replicate R2) was 8.
